#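 Five concentrations, 48 hours, 96-well plates. Here, GI50 denotes the concentration required for 50% inhibition of growth.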 The source made the active and inactive calls. Rule as the data show it: active = GI50 up to about 1.1 µM and inactive = higher.
# Legend:
# Assay in all cases: inhibition of tumour cell growth, NCI panel, 48 h
# SR = test system: SR
# LOX IMVI = test system: LOX IMVI
# SNB-75 = test system: SNB-75
# RXF 393 = test system: RXF 393
# Malme-3M = test system: Malme-3M
# OVCAR-3 = test system: OVCAR-3
# SF-539 = test system: SF-539
# BT-549 = test system: BT-549
# SK-MEL-2 = test system: SK-MEL-2
# SK-MEL-5 = test system: SK-MEL-5
# M14 = test system: M14
# U-251 = test system: U-251
# OVCAR-8 = test system: OVCAR-8
# NCI-H460 = test system: NCI-H460
# NCI/ADR-RES = test system: NCI/ADR-RES
# PC-3 = test system: PC-3
# MDA-MB-435 = test system: MDA-MB-435
# K562 = test system: K562
# HCT-116 = test system: HCT-116
# HT-29 = test system: HT-29
# HL-60 = test system: HL-60
# SK-OV-3 = test system: SK-OV-3
# A498 = test system: A498
# CAKI-1 = test system: CAKI-1
# MCF7 = test system: MCF7
# EKVX = test system: EKVX
# T47D = test system: T47D
# OVCAR-5 = test system: OVCAR-5
# UO-31 = test system: UO-31
# NCI-H23 = test system: NCI-H23
# 786-0 = test system: 786-0
# HCT-15 = test system: HCT-15
# HOP-92 = test system: HOP-92
# NCI-H226 = test system: NCI-H226
# UACC-62 = test system: UACC-62
# TK-10 = test system: TK-10
# MDA-MB-231 = test system: MDA-MB-231
# COLO 205 = test system: COLO 205
# IGROV-1 = test system: IGROV-1
# SF-268 = test system: SF-268
# Hs-578T = test system: Hs-578T
# NCI-H522 = test system: NCI-H522
# SF-295 = test system: SF-295
# ACHN = test system: ACHN
# RPMI-8226 = test system: RPMI-8226
# A549 = test system: A549
# KM12 = test system: KM12
# HOP-62 = test system: HOP-62
# SN12C = test system: SN12C
# SW-620 = test system: SW-620
# CCRF-CEM = test system: CCRF-CEM
# SK-MEL-28 = test system: SK-MEL-28
# MDA-N = test system: MDA-N
# DU-145 = test system: DU-145
# SNB-19 = test system: SNB-19
# OVCAR-4 = test system: OVCAR-4
# MOLT-4 = test system: MOLT-4
# UACC-257 = test system: UACC-257
# HCC 2998 = test system: HCC 2998
compound,measurement,setting,value
[O-][N+]1(CC[N+]2([O-])CCCCC2)CCCCC1,GI50,SR,> 100 µM (inactive)
same,GI50,LOX IMVI,> 100 µM (inactive)
same,GI50,SNB-75,> 100 µM (inactive)
same,GI50,RXF 393,> 100 µM (inactive)
same,GI50,Malme-3M,> 100 µM (inactive)
same,GI50,OVCAR-3,> 100 µM (inactive)
same,GI50,SF-539,> 100 µM (inactive)
same,GI50,BT-549,> 100 µM (inactive)
same,GI50,SK-MEL-2,> 100 µM (inactive)
same,GI50,SK-MEL-5,> 100 µM (inactive)
same,GI50,M14,> 100 µM (inactive)
same,GI50,U-251,> 100 µM (inactive)
same,GI50,OVCAR-8,> 100 µM (inactive)
same,GI50,NCI-H460,> 100 µM (inactive)
same,GI50,NCI/ADR-RES,> 100 µM (inactive)
same,GI50,PC-3,> 100 µM (inactive)
same,GI50,MDA-MB-435,> 100 µM (inactive)
same,GI50,K562,> 100 µM (inactive)
same,GI50,HCT-116,> 100 µM (inactive)
same,GI50,HT-29,> 100 µM (inactive)
same,GI50,HL-60,> 100 µM (inactive)
same,GI50,SK-OV-3,> 100 µM (inactive)
same,GI50,A498,> 100 µM (inactive)
same,GI50,CAKI-1,> 100 µM (inactive)
same,GI50,MCF7,> 100 µM (inactive)
same,GI50,EKVX,> 100 µM (inactive)
same,GI50,T47D,> 100 µM (inactive)
same,GI50,OVCAR-5,> 100 µM (inactive)
same,GI50,UO-31,> 100 µM (inactive)
same,GI50,NCI-H23,> 100 µM (inactive)
same,GI50,786-0,> 100 µM (inactive)
same,GI50,HCT-15,> 100 µM
same,GI50,HOP-92,> 100 µM (inactive)
same,GI50,NCI-H226,> 100 µM (inactive)
same,GI50,UACC-62,> 100 µM (inactive)
same,GI50,TK-10,> 100 µM (inactive)
same,GI50,MDA-MB-231,> 100 µM (inactive)
same,GI50,COLO 205,> 100 µM (inactive)
same,GI50,IGROV-1,> 100 µM (inactive)
same,GI50,SF-268,> 100 µM (inactive)
same,GI50,Hs-578T,> 100 µM (inactive)
same,GI50,NCI-H522,> 100 µM (inactive)
same,GI50,SF-295,> 100 µM (inactive)
same,GI50,ACHN,> 100 µM (inactive)
same,GI50,RPMI-8226,> 100 µM (inactive)
same,GI50,A549,> 100 µM (inactive)
same,GI50,KM12,> 100 µM (inactive)
same,GI50,HOP-62,> 100 µM (inactive)
same,GI50,SN12C,> 100 µM (inactive)
same,GI50,SW-620,> 100 µM (inactive)
same,GI50,CCRF-CEM,> 100 µM (inactive)
same,GI50,SK-MEL-28,> 100 µM (inactive)
same,GI50,MDA-N,> 100 µM (inactive)
same,GI50,DU-145,> 100 µM (inactive)
same,GI50,SNB-19,> 100 µM (inactive)
same,GI50,OVCAR-4,> 100 µM (inactive)
same,GI50,MOLT-4,> 100 µM (inactive)
Brc1ccc2c3c1[C@@H]1O[C@@H]1c1cccc(c1-3)[C@@H]1O[C@H]21,GI50,SR,> 100 µM (inactive)
same,GI50,LOX IMVI,2.21 µM (inactive)
same,GI50,SNB-75,19.8 µM (inactive)
same,GI50,RXF 393,17.1 µM (inactive)
same,GI50,Malme-3M,18.6 µM (inactive)
same,GI50,OVCAR-3,19.9 µM (inactive)
same,GI50,SF-539,2.32 µM (inactive)
same,GI50,BT-549,21.1 µM (inactive)
same,GI50,SK-MEL-2,23.6 µM (inactive)
same,GI50,SK-MEL-5,16.9 µM (inactive)
same,GI50,M14,14.5 µM (inactive)
same,GI50,U-251,17.6 µM (inactive)
same,GI50,OVCAR-8,13.8 µM (inactive)
same,GI50,NCI/ADR-RES,17.4 µM (inactive)
same,GI50,PC-3,23.6 µM (inactive)
same,GI50,MDA-MB-435,15 µM (inactive)
same,GI50,K562,> 39.9 µM (inactive)
same,GI50,HCT-116,13.8 µM (inactive)
same,GI50,HT-29,17.6 µM (inactive)
same,GI50,HL-60,19.6 µM (inactive)
same,GI50,SK-OV-3,27.5 µM (inactive)
same,GI50,A498,26.9 µM (inactive)
same,GI50,CAKI-1,13.1 µM (inactive)
same,GI50,MCF7,9.08 µM (inactive)
same,GI50,EKVX,19.6 µM (inactive)
same,GI50,T47D,15.4 µM (inactive)
same,GI50,UACC-257,28.4 µM (inactive)
same,GI50,OVCAR-5,17.6 µM (inactive)
same,GI50,UO-31,15.4 µM (inactive)
same,GI50,NCI-H23,16.3 µM (inactive)
same,GI50,786-0,16.5 µM (inactive)
same,GI50,HCT-15,18.6 µM
same,GI50,HOP-92,20.9 µM (inactive)
same,GI50,NCI-H226,39.7 µM (inactive)
same,GI50,UACC-62,17.2 µM (inactive)
same,GI50,TK-10,41 µM (inactive)
same,GI50,MDA-MB-231,27.4 µM (inactive)
same,GI50,COLO 205,21.8 µM (inactive)
same,GI50,SF-268,24.2 µM (inactive)
same,GI50,Hs-578T,29.9 µM (inactive)
same,GI50,NCI-H522,13.8 µM (inactive)
same,GI50,SF-295,19.2 µM (inactive)
same,GI50,ACHN,22.1 µM (inactive)
same,GI50,RPMI-8226,13.1 µM (inactive)
same,GI50,A549,26.1 µM (inactive)
same,GI50,KM12,16.9 µM (inactive)
same,GI50,HOP-62,19.5 µM (inactive)
same,GI50,SN12C,17.3 µM (inactive)
same,GI50,SW-620,14.5 µM (inactive)
same,GI50,CCRF-CEM,5.09 µM (inactive)
same,GI50,SK-MEL-28,17.6 µM (inactive)
same,GI50,MDA-N,17.6 µM (inactive)
same,GI50,DU-145,24.9 µM (inactive)
same,GI50,SNB-19,22.3 µM (inactive)
same,GI50,OVCAR-4,17.9 µM (inactive)
same,GI50,MOLT-4,> 53 µM (inactive)
N#Cc1ccc(OCc2nc3cc(C(F)(F)F)ccc3nc2-c2ccccc2)cc1,GI50,SR,70.5 µM (inactive)
same,GI50,LOX IMVI,> 100 µM (inactive)
same,GI50,SNB-75,> 100 µM (inactive)
same,GI50,Malme-3M,> 100 µM (inactive)
same,GI50,OVCAR-3,> 100 µM (inactive)
same,GI50,SF-539,> 100 µM (inactive)
same,GI50,BT-549,> 100 µM (inactive)
same,GI50,SK-MEL-2,> 100 µM (inactive)
same,GI50,SK-MEL-5,> 100 µM (inactive)
same,GI50,M14,> 100 µM (inactive)
same,GI50,U-251,> 100 µM (inactive)
same,GI50,OVCAR-8,> 100 µM (inactive)
same,GI50,NCI-H460,> 100 µM (inactive)
same,GI50,NCI/ADR-RES,> 100 µM (inactive)
same,GI50,PC-3,> 100 µM (inactive)
same,GI50,MDA-MB-435,> 100 µM (inactive)
same,GI50,HCT-116,> 100 µM (inactive)
same,GI50,HT-29,7.93 µM (inactive)
same,GI50,HL-60,3.53 µM (inactive)
same,GI50,A498,> 100 µM (inactive)
same,GI50,CAKI-1,> 100 µM (inactive)
same,GI50,MCF7,> 100 µM (inactive)
same,GI50,EKVX,41.2 µM (inactive)
same,GI50,T47D,> 100 µM (inactive)
same,GI50,UACC-257,> 100 µM (inactive)
same,GI50,OVCAR-5,> 100 µM (inactive)
same,GI50,UO-31,> 100 µM (inactive)
same,GI50,NCI-H23,> 100 µM (inactive)
same,GI50,786-0,> 100 µM (inactive)
same,GI50,HCT-15,> 10 µM
same,GI50,HOP-92,> 100 µM (inactive)
same,GI50,UACC-62,> 100 µM (inactive)
same,GI50,TK-10,> 100 µM (inactive)
same,GI50,MDA-MB-231,51.1 µM (inactive)
same,GI50,COLO 205,> 100 µM (inactive)
same,GI50,IGROV-1,> 100 µM (inactive)
same,GI50,SF-268,> 100 µM (inactive)
same,GI50,Hs-578T,> 100 µM (inactive)
same,GI50,NCI-H522,7.62 µM (inactive)
same,GI50,SF-295,> 100 µM (inactive)
same,GI50,ACHN,> 100 µM (inactive)
same,GI50,RPMI-8226,> 100 µM (inactive)
same,GI50,A549,> 100 µM (inactive)
same,GI50,KM12,> 100 µM (inactive)
same,GI50,HCC 2998,> 100 µM (inactive)
same,GI50,HOP-62,> 100 µM (inactive)
same,GI50,SN12C,> 100 µM (inactive)
same,GI50,SW-620,> 100 µM (inactive)
same,GI50,CCRF-CEM,57.7 µM (inactive)
same,GI50,SK-MEL-28,> 100 µM (inactive)
same,GI50,MDA-N,> 100 µM (inactive)
same,GI50,DU-145,> 100 µM (inactive)
same,GI50,SNB-19,> 100 µM (inactive)
same,GI50,OVCAR-4,> 100 µM (inactive)
same,GI50,MOLT-4,62.1 µM (inactive)
